Assay results taken from article PMC9853869, “The Myxobacterial Antibiotic Myxovalargin: Biosynthesis, Structural Revision, Total Synthesis, and Molecular Characterization of Ribosomal Inhibition” (Journal of the American Chemical Society, 2023).
Values after ≈ are worked out from the molar mass of the structure shown. Where two headings read alike, the source gives them in different places. *1 amine or outer side, *2 acyl side, *3 side chain or, on linkers, in order; H or OH if unused. Where a SMILES comes first, the peptide text is derived from it. [ ]: non-standard residue; d: D form. The star is where a group is joined. X1 = O=C(C[C@H](N[*:1])c1ccc(O)cc1)[*:2]; dVal(3-OH) = CC(C)(O)[C@@H](N)C(=O)O; X2 = CCC(C)=C(N[*:1])C(=O)[*:2]; ΔIle(E) = CC/C(C)=C(/N)C(=O)O; Isovaleryl = CC(C)CC(=O)*; Agmatine = N=C(N)NCCCCN*; Isobutyryl = CC(C)C(=O)*; NMeA = CN[C@@H](C)C(=O)O; ΔVal = CC(C)=C(N)C(=O)O

Key:
[1] = tested on: Pseudomonas aeruginosa PA14; settings: PA14, 24 h
[2] = tested on: Mycobacterium smegmatis mc2155; settings: mc2155, 48 h
[3] = tested on: Staphylococcus aureus DSM-346; settings: DSM-346, 24 h
[4] = tested on: Escherichia coli DSM-1116; settings: DSM-1116, 24 h
[5] = tested on: Chromobacterium violaceum DSM-30191; settings: DSM-30191, 24 h
[6] = tested on: Pseudomonas aeruginosa PAO1; settings: PAO1, 24 h
[7] = tested on: Micrococcus luteus DSM-1790; settings: DSM-1790, 24 h
[8] = tested on: Enterococcus faecium DSM-20477; settings: DSM-20477, 24 h
[9] = tested on: Escherichia coli K12 ΔtolC; settings: K12, 24 h
[10] = tested on: Staphylococcus aureus; settings: 4 h
[11] = tested on: Pasteurella multocida
[12] = tested on: M. tuberculosis; settings: for toxicity in infected mice: mouse, in vivo
[13] = tested on: intracellular M. tuberculosis H37Rv; assay: Intracellular activity ex vivo in THP-1-derived macrophages; type: cell-based, Mycobacterium tuberculosis
[14] = tested on: Histophilus somni
[15] = tested on: Mannheimia haemolytica
[16] = tested on: M. tuberculosis H37Rv
[17] = tested on: M. tuberculosis H37Rv; assay: Time-kill kinetics in vitro; type: cell-based, Mycobacterium tuberculosis; settings: independent triplicates
[18] = in vivo; settings: BALB/c, mouse
[19] = tested on: Pasteurella multocida; remark: listed apart in the source
[20] = tested on: HepG2 cells; settings: HepG2, 24 h, alamarBlue, 0.005 - 99.0 μM, mean of 4 replicates
[21] = tested on: Streptococcus uberis; settings: 4 h
[22] = tested on: 23S rRNA of the large ribosomal subunit; type: binding, E. coli; settings: 10 μM or 100 μM
[23] = tested on: E. coli ribosomes bearing the A2503G mutation; type: biochemical
[24] = tested on: ribosome; assay: Toeprinting assay on ErmBL mRNA; type: biochemical, E. coli; settings: 10–100 μM, absence of isoleucine
Protocol: To address the mechanism of action of myxovalargins, we employed the toeprinting assay, which uses reverse transcription to monitor the position of ribosomes on a mRNA (Figure 6a).[24] The assay was performed in the absence of isoleucine (Ile) such that in the absence of antibiotics, ribosomes can initiate at the AUG start codon but become stuck after translating 15 amino acids when the Ile “catch-codon” enters the A-site (Figure 6a,b). […] We also performed toeprinting reactions in the presence of 5 μM erythromycin (Ery), which allows ribosomes to translate the first 10 amino acids of the ErmBL mRNA but then stalls them with GAU (Asp) codon in the P-site (Figure 6a,b), as reported previously.[25]−[27] After pre-incubation with Ery, we titrated reactions with increasing MyxB, which also led to a loss of the Ery-dependent ErmBL stalling band and appearance of ribosomes positioned on the start codon (Figure 6b), consistent with the overlap in ribosomal binding sites of MyxB and Ery (Figure 6c,d). […] Indeed, in the MyxB-SRC, we observed the simultaneous presence of P-site tRNA and MyxB (Figure 5d) but no ribosomes with additional presence of A-site tRNA (Figure S7-5). […]

[25] = tested on: wildtype E. coli ribosomes; type: biochemical; settings: purified wildtype 70S ribosomes, increasing concentrations
[26] = tested on: eukaryotic translation; settings: cited from earlier work
Description: Microorganisms continue to be a major source for innovative antibiotics. Ubiquitously found but understudied soil-dwelling predatory myxobacteria have proven to be a rich source of bioactive compounds.[3]−[5] […] The myxovalargin structure was described in 1987 as comprising some congeners with Myxovalargin A (MyxA) ...

Work on `CC(C)=C(NC(=O)C(C)C)C(=O)N[C@@H](C)C(=O)N(C)[C@@H](C)C(=O)N[C@@H](C(=O)N[C@@H](C(=O)N[C@@H](CC(=O)N[C@@H](C(=O)NC(C(=O)N[C@H](CCCNC(=N)N)C(=O)N[C@H](C(=O)N[C@@H](C(=O)NC(C(=O)N[C@H](C)C(=O)N[C@@H](C(=O)NCCCCNC(=N)N)C(C)(C)O)=C(C)C)C(C)C)C(C)C)=C(C)C)C(C)C)c1ccc(O)cc1)C(C)C)C(C)C` [Myx C] (Isobutyryl-[ΔVal]A[NMeA][dV][dV][X1][dV][ΔVal][dR]V[dV][ΔVal][dA][dVal(3-OH)]-Agmatine) yielded an MIC [1] of 32 µg/mL (≈ 19.4 µM), an MIC [2] of 4 µg/mL (≈ 2.43 µM) and an MIC [3] of 2 µg/mL (≈ 1.21 µM). It also gave an MIC [4] of 64 µg/mL (≈ 38.8 µM), an MIC [5] of 8 µg/mL (≈ 4.85 µM) and an MIC [6] of 64 µg/mL (≈ 38.8 µM). It also gave an MIC [7] of 2 µg/mL (≈ 1.21 µM), an MIC [8] of 1 µg/mL (≈ 0.606 µM) and an MIC [9] of 32 µg/mL (≈ 19.4 µM).

For `CC/C(C)=C(/NC(=O)[C@H](NC(=O)[C@@H](NC(=O)[C@@H](CCCNC(=N)N)NC(=O)C(NC(=O)[C@H](NC(=O)C[C@H](NC(=O)[C@H](NC(=O)[C@H](NC(=O)[C@H](C)N(C)C(=O)[C@H](C)NC(=O)C(NC(=O)CC(C)C)=C(C)C)C(C)C)C(C)C)c1ccc(O)cc1)C(C)C)=C(C)C)C(C)C)C(C)C)C(=O)N[C@H](C)C(=O)N[C@@H](C(=O)NCCCCNC(=N)N)C(C)(C)O` [MyxA, Myxovalargin A] (Isovaleryl-[ΔVal]A[NMeA][dV][dV][X1][dV][ΔVal][dR]V[dV][ΔIle(E)][dA][dVal(3-OH)]-Agmatine), the MIC [1] was 16 µg/mL (≈ 9.54 µM), the MIC [10] was 1 to 2 µg/mL and the “MIC + milk” value [10] was > 64 µg/mL. It also gave an MIC [2] of 4 µg/mL (≈ 2.39 µM), an MIC [3] of 2 µg/mL (≈ 1.19 µM) and an MIC [4] of 32 µg/mL (≈ 19.1 µM). The MIC50 ([11]; 4 h) was 16 µg/mL (≈ 9.54 µM), the “MIC + serum” value ([11]; 4 h) was 10 µg/mL and the MIC90 ([11]; bovine isolates, n = 25) was 16 µg/mL (≈ 9.54 µM). The “effect on bacterial burden in lung and spleen” value ([12]; 2 mg/kg i.p. daily, study terminated after 1 week) was “no significant effect on bacterial burden”, the “toxicity in infected mice” value [12] was “moribund after 1 week” and the MIC [5] was 8 µg/mL (≈ 4.77 µM). For the same compound, the “mode of action ex vivo (intracellular)” value [13] was “bacteriostatic activity”, the MIC50 ([14]; 4 h) was 4 µg/mL (≈ 2.39 µM) and the MIC range ([14]; 4 h) was 2 to 8 µg/mL. For the same compound, the MIC90 ([14]; bovine isolates, n = 20) was 8 µg/mL (≈ 4.77 µM), the MIC50 ([15]; 4 h) was 16 µg/mL (≈ 9.54 µM) and the “MIC + serum” value ([15]; 4 h) was 20 µg/mL. It also gave an MIC90 ([15]; bovine isolates, n = 55) of 16 µg/mL (≈ 9.54 µM), an MIC [6] of 32 µg/mL (≈ 19.1 µM) and an MIC [7] of 1 µg/mL (≈ 0.596 µM). For the same compound, the MIC [8] was 0.5 µg/mL (≈ 0.298 µM), the MIC [16] was 0.2 µg/mL (≈ 0.119 µM) and the “mode of killing in vitro” value [17] was “dose-dependent bactericidal activity”. It also gave a level at 0.5 h ([18]; ip, 10 mg/kg) of 1830 ng/mL, a level at 2 h ([18]; ip, 10 mg/kg) of 1550 ng/mL and a level at 0.5 h ([18]; sc, 50 mg/kg) of 5260 ng/mL. The level at 2 h ([18]; sc, 50 mg/kg) was 2280 ng/mL, the MIC [9] was 16 µg/mL (≈ 9.54 µM) and the “Survival rate 48 hpi” value ([19]; 10 mg/kg MyxA, i.p., single dose 1 h post-infection, groups of 6) was 83%. For the same compound, the “Mean bacteria in liver” value ([19]; 10 mg/kg MyxA, i.p., n=1) was 8.5 x 10^7 CFU/g, the “Mean bacteria in liver” value ([19]; 10 mg/kg MyxA, i.p., n=5) was 0 CFU/g and the “bacteriological cure (animals)” value ([19]; 10 mg/kg i.p.) was “five out of six”. The “Mean bacteria in liver” value ([19]; 50 mg/kg MyxA, s.c.) was 1.8 x 10^6 CFU/g, the “Survival rate 48 hpi” value ([19]; 50 mg/kg MyxA, s.c., single dose 1 h post-infection) was 0% and the “tolerability (clinical scoring)” value ([19]; single 10 mg/kg i.p. dose, P. multocida sepsis model) was “well tolerated”. For the same compound, the tolerability (0.5 mg/kg/day i.p., seven consecutive doses) was “well tolerated”, the tolerability (5 mg/kg/day i.p., on day 2) was “severe adverse effects” and the “half-life (in words)” value (mice, i.p. 0.5, 2 and 5 mg/kg, blood, LC-MS) was “long half-life”. The “median cytotoxic dose CTD50” value [20] was > 99 µM, the MIC [21] was 0.25 to 2 µg/mL and the “MIC + milk” value [21] was > 64 µg/mL.

`CCC(C)=C(NC(=O)[C@H](NC(=O)[C@@H](NC(=O)[C@@H](CCCNC(=N)N)NC(=O)C(NC(=O)[C@H](NC(=O)C[C@H](NC(=O)[C@H](NC(=O)[C@H](NC(=O)[C@H](C)N(C)C(=O)[C@H](C)NC(=O)C(NC(=O)C(C)C)=C(C)C)C(C)C)C(C)C)c1ccc(O)cc1)C(C)C)=C(C)C)C(C)C)C(C)C)C(=O)N[C@H](C)C(=O)N[C@@H](C(=O)NCCCCNC(=N)N)C(C)(C)O` [MyxB] (Isobutyryl-[ΔVal]A[NMeA][dV][dV][X1][dV][ΔVal][dR]V[dV][X2][dA][dVal(3-OH)]-Agmatine) gave an MIC [1] of 32 µg/mL (≈ 19.2 µM), an MIC [2] of 8 µg/mL (≈ 4.81 µM) and an MIC [3] of 8 µg/mL (≈ 4.81 µM). The “protection from dimethyl sulfate modification” value [22] was “protects multiple 23S rRNA nucleotides”, the MIC [4] was 64 µg/mL (≈ 38.5 µM) and the “in vitro translation of firefly luciferase reporter” value [23] was “completely resistant”. The “position of arrested ribosomes (toeprint)” value [24] was “ribosomes positioned with the AUG start codon in the P-site”, the MIC [5] was 32 µg/mL (≈ 19.2 µM) and the MIC [6] was 64 µg/mL (≈ 38.5 µM). For the same compound, the MIC [7] was 2 µg/mL (≈ 1.2 µM), the “in vitro translation of firefly luciferase reporter” value [25] was “inhibited by MyxB in a dose-dependent fashion” and the MIC [8] was 1 µg/mL (≈ 0.601 µM). For the same compound, the MIC [9] was 32 µg/mL (≈ 19.2 µM).

In the case of `CCC(C)=C(NC(=O)[C@H](NC(=O)[C@@H](NC(=O)[C@@H](CCCNC(=N)N)NC(=O)C(NC(=O)[C@H](NC(=O)C[C@H](NC(=O)[C@H](NC(=O)[C@H](NC(=O)[C@H](C)N(C)C(=O)[C@H](C)NC(=O)C(NC(=O)CC(C)C)=C(C)C)C(C)C)C(C)C)c1ccc(O)cc1)C(C)C)=C(C)C)C(C)C)C(C)C)C(=O)N[C@H](C)C(=O)N[C@@H](C(=O)NCCCCNC(=N)N)C(C)(C)O` [Myxovalargin] (Isovaleryl-[ΔVal]A[NMeA][dV][dV][X1][dV][ΔVal][dR]V[dV][X2][dA][dVal(3-OH)]-Agmatine), the “inhibition of eukaryotic translation” value [26] is listed as “did not inhibit eukaryotic translation”, the “toxicity in infected mice” value [12] is listed as “moribund within 1 week” and the “MIC (antitubercular activity)” value [16] is listed as 0.2 µg/mL (≈ 0.119 µM).

In the case of `CCN1CCN(c2cc3c(cc2F)c(=O)c(C(=O)O)cn3C2CC2)CC1` [enrofloxacin, reference compound], the “Mean bacteria in liver” value ([19]; 10 mg/kg enrofloxacin, s.c.) is reported as 0 CFU/g and the “Survival rate 48 hpi” value ([19]; 10 mg/kg enrofloxacin, s.c.) is reported as 100%.
